Laboratory results as given in paper PMC10163056, “Vortioxetine hydrobromide inhibits the growth of gastric cancer cells in vivo and in vitro by targeting JAK2 and SRC” (Oncogenesis, 2023).
Where a name gives a salt, the structure may show the parent alone.

Legend:
SRC = SRC (Homo sapiens, UniProt P12931); test: Kinase-Lumi luminescent kinase assay; also in vitro kinase assay with recombinant SRC and STAT3, bead pull-down of recombinant protein, CETSA in AGS and HGC27 cells; assay type: biochemical
JAK2 = JAK2 (Homo sapiens, UniProt O60674); test: Kinase-Lumi luminescent kinase assay; also in vitro kinase assay with recombinant JAK2 and STAT3, bead pull-down of recombinant protein, CETSA in AGS and HGC27 cells; assay type: biochemical
Chain of JAK2 (O60674 whole entry): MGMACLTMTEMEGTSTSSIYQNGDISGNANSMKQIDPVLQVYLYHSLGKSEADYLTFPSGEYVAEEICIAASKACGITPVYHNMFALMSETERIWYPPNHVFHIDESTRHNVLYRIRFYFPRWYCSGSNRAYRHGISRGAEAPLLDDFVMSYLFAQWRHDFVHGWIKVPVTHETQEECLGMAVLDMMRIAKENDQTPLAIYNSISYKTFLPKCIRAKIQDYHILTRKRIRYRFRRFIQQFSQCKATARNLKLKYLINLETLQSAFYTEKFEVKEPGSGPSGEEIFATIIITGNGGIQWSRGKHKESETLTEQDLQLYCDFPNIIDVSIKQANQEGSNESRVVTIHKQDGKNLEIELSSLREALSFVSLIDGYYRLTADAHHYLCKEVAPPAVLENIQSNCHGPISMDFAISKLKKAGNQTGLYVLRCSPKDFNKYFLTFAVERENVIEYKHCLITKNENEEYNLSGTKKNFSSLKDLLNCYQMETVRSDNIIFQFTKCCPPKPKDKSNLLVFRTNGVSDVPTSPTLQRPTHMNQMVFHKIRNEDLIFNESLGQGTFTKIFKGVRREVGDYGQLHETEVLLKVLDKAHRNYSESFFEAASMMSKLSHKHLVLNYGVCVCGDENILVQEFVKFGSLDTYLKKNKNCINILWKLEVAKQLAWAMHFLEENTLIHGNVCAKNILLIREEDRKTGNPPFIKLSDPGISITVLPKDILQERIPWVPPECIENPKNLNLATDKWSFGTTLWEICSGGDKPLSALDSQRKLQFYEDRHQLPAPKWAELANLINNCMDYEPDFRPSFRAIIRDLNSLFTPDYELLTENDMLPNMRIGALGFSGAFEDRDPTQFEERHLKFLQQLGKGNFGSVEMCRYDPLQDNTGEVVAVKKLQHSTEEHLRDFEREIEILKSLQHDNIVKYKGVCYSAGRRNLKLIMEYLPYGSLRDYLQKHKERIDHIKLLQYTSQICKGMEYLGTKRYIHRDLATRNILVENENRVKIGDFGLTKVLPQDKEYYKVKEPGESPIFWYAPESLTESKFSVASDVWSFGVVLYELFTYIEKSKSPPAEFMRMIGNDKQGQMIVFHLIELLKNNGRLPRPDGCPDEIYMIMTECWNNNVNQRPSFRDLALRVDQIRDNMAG

Chain of SRC (P12931 2-536): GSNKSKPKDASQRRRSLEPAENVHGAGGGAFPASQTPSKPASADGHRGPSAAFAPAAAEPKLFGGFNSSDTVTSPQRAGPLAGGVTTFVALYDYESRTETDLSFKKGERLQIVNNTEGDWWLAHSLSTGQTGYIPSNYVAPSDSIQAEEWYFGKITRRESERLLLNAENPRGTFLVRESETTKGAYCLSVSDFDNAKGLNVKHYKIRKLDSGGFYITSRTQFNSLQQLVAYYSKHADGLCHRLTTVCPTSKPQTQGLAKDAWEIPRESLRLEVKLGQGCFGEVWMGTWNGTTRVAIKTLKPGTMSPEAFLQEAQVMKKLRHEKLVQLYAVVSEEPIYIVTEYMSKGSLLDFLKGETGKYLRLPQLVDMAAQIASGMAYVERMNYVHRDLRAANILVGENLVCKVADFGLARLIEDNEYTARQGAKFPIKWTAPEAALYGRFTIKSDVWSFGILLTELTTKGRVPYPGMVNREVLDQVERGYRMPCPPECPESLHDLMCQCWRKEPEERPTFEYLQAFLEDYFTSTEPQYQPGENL

IC50 (SRC): 6.5 µM
IC50 (JAK2): 8.53 µM
Compound: Cc1ccc(Sc2ccccc2N2CCNCC2)c(C)c1 [vortioxetine hydrobromide]
